The values below come from patent US9856279B2 (AGIOS PHARMACEUTICALS, INC, priority 2011, dated 2018).

The target of one experiment is IDH1 R132H (Homo sapiens, UniProt O75874, R132H). The experiment in a line: Assay for IDH1 R132H inhibitors (NADPH/aKG, resazurin detection). Particulars: enzyme assay of Example 12; read-out: IDH1R132H IC50. It counts as biochemical. The procedure, abridged:
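Read-out is resorufin fluorescence (Ex544/Em590) 5 min after adding a 30 μM resazurin detection mix. Before that, mutant enzyme (0.2 μg/ml in its mix) ran 50 min at room temperature with compound, 8 uM NADPH and 2 mM aKG (mix levels) in Tris pH 7.5 with NaCl, MgCl2, BSA.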
A general note: Resazurin is reduced to fluorescent resorufin, in cell work by metabolically active cells.

The next experiment relates to HT1080 cells. The experiment in a line: Cellular assay for IDH1m inhibitors: inhibition of 2-HG production (LC-MS, 48 hours) in HT1080 cells. It counts as cell-based. Conditions: Homo sapiens, HT-1080; inhibition of 2-HG production, HT1080 cells; read-out: HT1080 IC50. In short, it runs like this: (§1)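 Inhibition of 2-HG production was assessed in cells seeded at 5000/well and exposed to compound for 48 h (final DMSO 0.2%). Supernatant 2-HG was analysed by LC-MS.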

The next experiment concerns U87MG cells. The experiment in a line: Cellular assay for IDH1m inhibitors: inhibition of 2-HG production (LC-MS, 48 hours) in U87MG cells. It counts as cell-based. Particulars: Homo sapiens, U-87 MG, inhibition of 2-HG production, U87R132H cells; read-out: U87R132H IC50. In short, it runs like this: as §1

IDH1 R132H, sequence (O75874 whole entry R132H): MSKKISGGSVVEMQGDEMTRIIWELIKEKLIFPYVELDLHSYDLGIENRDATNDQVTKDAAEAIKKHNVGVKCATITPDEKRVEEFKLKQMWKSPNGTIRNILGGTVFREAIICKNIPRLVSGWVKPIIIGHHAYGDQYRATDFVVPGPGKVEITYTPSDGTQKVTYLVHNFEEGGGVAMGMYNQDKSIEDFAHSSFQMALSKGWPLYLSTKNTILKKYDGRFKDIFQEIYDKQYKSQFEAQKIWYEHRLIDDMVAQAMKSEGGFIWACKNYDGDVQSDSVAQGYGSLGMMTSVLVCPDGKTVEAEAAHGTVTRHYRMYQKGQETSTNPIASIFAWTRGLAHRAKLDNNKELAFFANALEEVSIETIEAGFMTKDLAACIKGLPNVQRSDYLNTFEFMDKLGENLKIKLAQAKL

By IC50 is commonly meant the point on the concentration scale where inhibition reaches its midpoint. `COCCC(=O)N1CCN(c2nc(C3CC3)c(-c3ccc4ccccc4c3)c(C)c2C#N)C[C@H]1C` [Compound 267, (R)-6-cyclopropyl-2-(4-(3-methoxypropanoyl)-3-methylpiperazin-1-yl)-4-methyl-5-(naphthalen-2-yl)nicotinonitrile]: the IC50 on IDH1 R132H is 500 to 1000 nM; with HT1080 cells, 1000 to 10000 nM; with U87MG cells, 1000 to 10000 nM.
`C=Cc1cnnc(-c2cc(C#N)c(N3CCN(C(=O)CCO)[C@H](C4CC4)C3)nc2C2CC2)c1` [Compound 716, (R)-6-cyclopropyl-2-(3-cyclopropyl-4-(3-hydroxypropanoyl)piperazin-1-yl)-5-(5-vinylpyridazin-3-yl)nicotinonitrile]: the half-inhibitory concentration (IC50) on IDH1 R132H, in the experiment on HT1080 cells and in the experiment with U87MG cells was less than 500 nM in each case.
As to `C=Cc1cnc2c(-c3cc(C#N)c(N4CCN(C(=O)CCOC)[C@H](C(C)C)C4)nc3C3CC3)cccc2n1` [Compound 605, (R)-6-cyclopropyl-2-(3-isopropyl-4-(3-methoxypropanoyl)piperazin-1-yl)-5-(2-vinylquinoxalin-5-yl)nicotinonitrile], the IC50 at IDH1 R132H, with HT1080 cells and in the experiment on U87MG cells was less than 500 nM in each case.
In the case of `COCCC(=O)N1CCN(c2nc(C3CC3)c(Oc3cc(Cl)ncn3)cc2C#N)C[C@H]1C` [Compound 666, (R)-5-((6-chloropyrimidin-4-yl)oxy)-6-cyclopropyl-2-(4-(3-methoxypropanoyl)-3-methylpiperazin-1-yl)nicotinonitrile], the IC50 on IDH1 R132H, in the experiment on HT1080 cells and with U87MG cells was less than 500 nM throughout.
As to `C=CS(=O)(=O)Nc1cccc(-c2cc(C#N)c(N3CCN(C(=O)C4CC4)[C@H](C4CC4)C3)nc2C2CC2)c1` [Compound 451], the concentration for half-maximal inhibition (IC50) was less than 500 nM at IDH1 R132H, 1000 to 10000 nM with HT1080 cells and 1000 to 10000 nM in the experiment with U87MG cells.
In the case of `COCCC(=O)N1CCN(c2nc(C3CC3)c(-c3ccc(C#N)cc3)c(C)c2C#N)C[C@H]1C` [Compound 347, (R)-5-(4-cyano-phenyl)-6-cyclopropyl-2-[4-(3-methoxy-propionyl)-3-methyl-piperazin-1-yl]-4-methyl-nicotinonitrile], the 50% inhibitory concentration (IC50) on IDH1 R132H, with HT1080 cells and with U87MG cells was less than 500 nM each time.
For the molecule `C=Cc1ncc2c(-c3cc(C#N)c(N4CCN(C(=O)CCOC)[C@H](C)C4)nc3C3CC3)cccc2n1` [Compound 603, (R)-6-cyclopropyl-2-(4-(3-methoxypropanoyl)-3-methylpiperazin-1-yl)-5-(2-vinylquinazolin-5-yl)nicotinonitrile], the IC50 on IDH1 R132H, in the experiment with HT1080 cells and in the experiment with U87MG cells was less than 500 nM in each case.
With `COCCC(=O)N1CCN(c2nc(C3CC3)c(-c3cccc(NC(=O)C(F)F)c3)cc2C#N)C[C@H]1C` [Compound 432, (R)—N-(3-(5-cyano-2-cyclopropyl-6-(4-(3-methoxypropanoyl)-3-methylpiperazin-1-yl)pyridin-3-yl)phenyl)-2,2-difluoroacetamide], the half-inhibitory concentration (IC50) was 500 to 1000 nM at IDH1 R132H, 1000 to 10000 nM with HT1080 cells and 1000 to 10000 nM with U87MG cells.
Consider `COCCC(=O)N1CCN(c2nc(C3CC3)c(-c3ccccc3OC)cc2C#N)C[C@H]1C(C)C` [Compound 275, (R)-6-cyclopropyl-2-(3-isopropyl-4-(3-methoxypropanoyl)piperazin-1-yl)-5-(2-methoxyphenyl)nicotinonitrile], for which the half-maximal inhibitory concentration (IC50) on IDH1 R132H was less than 500 nM; in the experiment on HT1080 cells it was 1000 to 10000 nM; with U87MG cells it was 1000 to 10000 nM.
As to `C=Cc1cc(-c2c(C3CC3)nc(N3CCN(C(=O)CCOC)[C@H](C4CC4)C3)c(C#N)c2C)c2ccncc2n1` [Compound 746, 6-cyclopropyl-2-((R)-3-cyclopropyl-4-(3-methoxypropanoyl)piperazin-1-yl)-4-methyl-5-(2-vinyl-1,7-naphthyridin-4-yl)nicotinonitrile], the IC50 at IDH1 R132H, in the experiment with HT1080 cells and with U87MG cells was less than 500 nM each time.
Consider `C=Cc1ccnc(Nc2cc(C#N)c(N3CCN(C(=O)C[C@H]4CCO4)[C@H](C(C)C)C3)nc2C2CC2)c1` [Compound 764, 6-cyclopropyl-2-((R)-3-isopropyl-4-(2-((R)-oxetan-2-yl)acetyl)piperazin-1-yl)-5-((4-vinylpyridin-2-yl)amino)nicotinonitrile], for which the IC50 at IDH1 R132H, in the experiment on HT1080 cells and in the experiment on U87MG cells was less than 500 nM each time.
Turning to `C=Cc1cc(Nc2cc(C#N)c(N3CCN(C(=O)COC)[C@H](C4CC4)C3)nc2C2CC2)ccn1` [Compound 711, (R)-6-cyclopropyl-2-(3-cyclopropyl-4-(2-methoxyacetyl)piperazin-1-yl)-5-((2-vinylpyridin-4-yl)amino)nicotinonitrile], the IC50 on IDH1 R132H, in the experiment on HT1080 cells and with U87MG cells was less than 500 nM throughout.
Regarding `C=Cc1cc(-c2cc(C#N)c(N3CCN(C(=O)C4CC4)[C@H](C4CC4)C3)nc2C2CC2)cnn1` [Compound 613, (R)-2-(4-(cyclopropanecarbonyl)-3-cyclopropylpiperazin-1-yl)-6-cyclopropyl-5-(6-vinylpyridazin-4-yl)nicotinonitrile], the IC50 at IDH1 R132H, with HT1080 cells and in the experiment on U87MG cells was less than 500 nM each time.
`COCCC(=O)N1CCN(c2nc(C3CC3)c(Nc3ccnc(Cl)c3)cc2C#N)C[C@H]1C` [Compound 643, (R)-5-((2-chloropyridin-4-yl)amino)-6-cyclopropyl-2-(4-(3-methoxypropanoyl)-3-methylpiperazin-1-yl)nicotinonitrile]: the half-maximal inhibitory concentration (IC50) at IDH1 R132H was less than 500 nM; in the experiment with HT1080 cells, less than 500 nM; in the experiment with U87MG cells, 500 to 1000 nM.
As for `C=Cc1cc(Oc2c(C3CC3)nc(N3CCN(C(=O)CCO)[C@H](C4CC4)C3)c(C#N)c2C)ccn1` [Compound 777, (R)-6-cyclopropyl-2-(3-cyclopropyl-4-(3-hydroxypropanoyl)piperazin-1-yl)-4-methyl-5-((2-vinylpyridin-4-yl)oxy)nicotinonitrile], the concentration for half-maximal inhibition (IC50) at IDH1 R132H, in the experiment with HT1080 cells and in the experiment on U87MG cells was less than 500 nM in each case.
For `C=Cc1cc(-c2cc(C#N)c(N3CCN(C(=O)CCOC)[C@H](C)C3)nc2C2CC2)c2cccnc2n1` [Compound 599, (R)-6-cyclopropyl-2-(4-(3-methoxypropanoyl)-3-methylpiperazin-1-yl)-5-(2-vinyl-1,8-naphthyridin-4-yl)nicotinonitrile], the half-maximal inhibitory concentration (IC50) on IDH1 R132H, in the experiment with HT1080 cells and with U87MG cells was less than 500 nM throughout.
In the case of `C=Cc1cc(-c2cc(C#N)c(N3CCN(C(=O)CCOC)[C@H](C4CC4)C3)nc2C2CC2)ccn1` [Compound 530, (R)-2-cyclopropyl-6-(3-cyclopropyl-4-(3-methoxypropanoyl)piperazin-1-yl)-2′-vinyl-3,4′-bipyridine-5-carbonitrile], the IC50 on IDH1 R132H, in the experiment on HT1080 cells and with U87MG cells was less than 500 nM in each case.
For the molecule `C=CC(=O)Nc1cccc(COc2cc(C#N)c(N3CCN(C(=O)CCOC)[C@H](C)C3)nc2C2CC2)c1` [Compound 381, (R)—N-(3-((5-cyano-2-cyclopropyl-6-(4-(3-methoxypropanoyl)-3-methylpiperazin-1-yl)pyridin-3-yloxy)methyl)phenyl)acrylamide], the 50% inhibitory concentration (IC50) on IDH1 R132H, in the experiment on HT1080 cells and with U87MG cells was less than 500 nM each time.
As for `COCCC(=O)N1CCN(c2nc(C3CC3)c(-c3ccc(OC(F)(F)F)cc3)c(C)c2C#N)C[C@H]1C` [Compound 263, (R)-6-cyclopropyl-2-(4-(3-methoxypropanoyl)-3-methylpiperazin-1-yl)-4-methyl-5-(4-(trifluoromethoxy)phenyl)nicotinonitrile], the half-inhibitory concentration (IC50) on IDH1 R132H is less than 500 nM; with HT1080 cells, 500 to 1000 nM; in the experiment on U87MG cells, 1000 to 10000 nM.
As for `C=Cc1cc(-c2c(C3CC3)nc(N3CCN(C(=O)CCOC)[C@H](C)C3)c(C#N)c2C)ccn1` [Compound 628, (R)-2-cyclopropyl-6-(4-(3-methoxypropanoyl)-3-methylpiperazin-1-yl)-4-methyl-2′-vinyl-[3,4′-bipyridine]-5-carbonitrile], the IC50 on IDH1 R132H, in the experiment on HT1080 cells and in the experiment with U87MG cells was less than 500 nM in each case.
On to `C=Cc1cc(N(C)c2cc(C#N)c(N3CCN(C(=O)CCOC)[C@H](C)C3)nc2C2CC2)ccn1` [Compound 690, (R)-6-cyclopropyl-2-(4-(3-methoxypropanoyl)-3-methylpiperazin-1-yl)-5-(methyl(2-vinylpyridin-4-yl)amino)nicotinonitrile], for which the IC50 at IDH1 R132H, in the experiment on HT1080 cells and with U87MG cells was less than 500 nM in each case.
Consider `C=Cc1cc(-c2cc(C#N)c(N3CCN(C(=O)CO)[C@H](C4CC4)C3)nc2C2CC2)ccn1` [Compound 738, (R)-2-cyclopropyl-6-(3-cyclopropyl-4-(2-hydroxyacetyl)piperazin-1-yl)-2′-vinyl-3,4′-bipyridine-5-carbonitrile], for which the half-maximal inhibitory concentration (IC50) on IDH1 R132H, with HT1080 cells and in the experiment on U87MG cells was less than 500 nM throughout.
With `C/C=C/C(=O)Nc1cccc(-c2cc(C#N)c(N3CCN(C(=O)CCOC)[C@H](C)C3)nc2C2CC2)c1` [Compound 415, (R,E)-N-(3-(5-cyano-2-cyclopropyl-6-(4-(3-methoxypropanoyl)-3-methylpiperazin-1-yl)pyridin-3-yl)phenyl)but-2-enamide], the IC50 on IDH1 R132H is less than 500 nM; with HT1080 cells it was 1000 to 10000 nM; with U87MG cells it was 1000 to 10000 nM.
